Data on three compounds can be found in US7612200B2, “Inhibitors of protein kinases” (Locus Pharmaceuticals, Inc., priority 2004, dated 2009).

In one assay the target is IGF1R (Homo sapiens, UniProt P08069). Description: Kinase activity at ATP Km,app, IGF1R. In kind it is biochemical. As to conditions: 40 min, compound 2 μM. Here is the method: (§1) IGF-1R Kinase Activity In a final reaction volume of 25 μl, IGF-1R (h) (5-10 mU) is incubated with 50 mM Tris pH 7.5, 0.1 mM EGTA, 0.1 mM Na3VO4, 0.1% β-mercaptoethanol, 250 μM KKKSPEGYVNIEFG, 10 mM MnCl2, 10 mM MgAcetate and [γ-^33P-ATP] (specific activity approx. 500 cpm/pmol, concentration as required). The reaction is initiated by the addition of the MgATP mix. After incubation for 40 minutes at room temperature, the reaction is stopped by the addition of 5 μl of a 3% phosphoric acid solution. 10 μl of the reaction is then spotted onto a P30 filtermat and washed three times for 5 minutes in 75 mM phosphoric acid and once in methanol prior to drying and scintillation counting.

The next assay concerns the target LynA (Homo sapiens, UniProt P07948). As to the kind of experiment: Kinase activity at ATP Km,app, LynA. In kind it is biochemical. Conditions: 40 min, compound 2 μM. Here is the method: as §1, with “Lyn” for “IGF-1R”, “Activity:” for “Activity”, “0.1 mg/ml poly(Glue, Tyr) 4:1,” for “250 μM KKKSPEGYVNIEFG, 10 mM MnCl2,”, “Filtermat A” for “P30 filtermat”
A further assay addresses MAPKAP-K2 (Homo sapiens, UniProt P49137). As to the kind of experiment: Kinase activity at ATP Km,app, MAPKAP-K2. In kind it is biochemical. As to conditions: 40 min, compound 2 μM. As to the method: MAPKAP-K2 Kinase Activity: In a final reaction volume of 25 μl, MAPKAP-K2 (h) (5-10 mU) is incubated with 50 mM Na-β-glycerophosphate pH 7.5, 0.1 mM EGTA, […] KKLNRTLSVA, 10 mM MgAcetate and [γ-^33P-ATP] (specific activity approx. 500 cpm/pmol, concentration as required). The reaction is initiated by the addition of the MgATP mix. After incubation for 40 minutes at room temperature, the reaction is stopped by the addition of 5 μl of a 3% phosphoric acid solution. 10 μl of the reaction is then spotted onto a P30 filtermat and washed three times for 5 minutes in 75 mM phosphoric acid and once in methanol prior to drying and scintillation counting.

The target in another assay is FGFR1 (Homo sapiens, UniProt P11362). Description: Kinase activity at ATP Km,app, FGFR1. The format is biochemical. As to conditions: compound 2 μM.
The target of a further assay is CK2-alpha 1 (Homo sapiens, UniProt P68400). Description: Kinase activity at ATP Km,app, CK2-alpha 1. In kind it is biochemical. Conditions: compound 2 μM.
Another assay addresses Lck (Homo sapiens, UniProt P06239). Description: Kinase activity at ATP Km,app, Lck. In kind it is biochemical. As to conditions: 40 min, compound 2 μM. As to the method: as §1, with “Lck” for “IGF-1R”, “Activity:” for “Activity”, “[…], Lck” for “μl, IGF-1R”, “Na3VO4,” for “Na3VO4, 0.1% β-mercaptoethanol,”, “KVEKIGEGTYGVVYK (Cdc2 peptide),” for “KKKSPEGYVNIEFG, 10 mM MnCl2,”

Another assay has as its target EGFR (Homo sapiens, UniProt P00533). As to the kind of experiment: Kinase activity at ATP Km,app, EGFR. In kind it is biochemical. Conditions: compound 2 μM.
Another assay concerns the target ERK2 (Homo sapiens, UniProt P28482). Description: Kinase activity at ATP Km,app, ERK2. As to conditions: compound 2 μM. The format is biochemical.
A further assay deals with PKA (Bos taurus, UniProt P00517). Description: Kinase activity at ATP Km,app, PKA. The format is biochemical, bovine. Conditions: 40 min, compound 2 μM. As to the method: PKA Kinase Activity: In a final reaction volume of 25 μl, PKA (b) (5-10 mU) is incubated with 8 mM MOPS pH 7.0, 0.2 mM EDTA, 30 μM LRRASLG (Kemptide), 10 mM MgAcetate and [γ-^33P-ATP] (specific activity approx. 500 cpm/pmol, concentration as required). The reaction is initiated by the addition of the MgATP mix. After incubation for 40 minutes at room temperature, the reaction is stopped by the addition of 5 μl of a 3% phosphoric acid solution. 10 μl of the reaction is the spotted onto a P30 filtermat and washed three times for 5 minutes in 50 mM phosphoric acid and once in methanol prior to drying and scintillation counting.

The target in a further assay is T1, IRAK4 (Homo sapiens, UniProt Q9NWZ3).
T1 sequence (Q9NWZ3 1-460): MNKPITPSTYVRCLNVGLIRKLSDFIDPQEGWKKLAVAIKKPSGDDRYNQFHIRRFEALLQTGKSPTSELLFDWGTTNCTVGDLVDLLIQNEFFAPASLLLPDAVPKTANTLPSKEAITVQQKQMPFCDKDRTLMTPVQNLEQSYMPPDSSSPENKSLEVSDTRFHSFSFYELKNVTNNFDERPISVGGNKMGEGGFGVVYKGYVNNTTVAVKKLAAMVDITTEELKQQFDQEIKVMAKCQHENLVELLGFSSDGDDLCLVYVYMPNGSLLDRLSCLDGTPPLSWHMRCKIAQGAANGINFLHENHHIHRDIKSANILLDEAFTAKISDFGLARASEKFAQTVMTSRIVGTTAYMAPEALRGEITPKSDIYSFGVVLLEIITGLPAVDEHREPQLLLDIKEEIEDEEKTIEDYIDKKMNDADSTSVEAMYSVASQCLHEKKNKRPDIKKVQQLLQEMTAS
As to the kind of experiment: Kinase activity at ATP Km,app, IRAK4. In kind it is biochemical. As to conditions: compound 2 μM.

The next assay addresses Src (Homo sapiens, UniProt P12931). As to the kind of experiment: Kinase activity at ATP Km,app, Src. In kind it is biochemical. Conditions: 40 min, compound 2 μM. As to the method:
cSRC Kinase Activity: In a final reaction volume of 25 μl, cSRC (h) (5-'0 mU) is incubated with 8 mM MOPS pH 7.0, 0.2 mM EDTA, 250 μM KVEKIGEGTYGVVYK (Cdc2 peptide), 10 mM MgAcetate and [γ-^33P-ATP] (specific activity approx. 500 cpm/pmol, concentratin as required). The reaction is initiated by the addition of the MgATP mix. After incubation for 40 minutes at room temperature, the reaction is stopped by the addition of 5 μl of a 3% phosphoric acid solution. 10 μl of the reaction is then spotted onto a P30 filtermat and washed three times for 5 minutes in 75 mM phosphoric acid and once in methanol prior to drying and scintillation counting.

EGFR, sequence (P00533 25-1210, species assumed): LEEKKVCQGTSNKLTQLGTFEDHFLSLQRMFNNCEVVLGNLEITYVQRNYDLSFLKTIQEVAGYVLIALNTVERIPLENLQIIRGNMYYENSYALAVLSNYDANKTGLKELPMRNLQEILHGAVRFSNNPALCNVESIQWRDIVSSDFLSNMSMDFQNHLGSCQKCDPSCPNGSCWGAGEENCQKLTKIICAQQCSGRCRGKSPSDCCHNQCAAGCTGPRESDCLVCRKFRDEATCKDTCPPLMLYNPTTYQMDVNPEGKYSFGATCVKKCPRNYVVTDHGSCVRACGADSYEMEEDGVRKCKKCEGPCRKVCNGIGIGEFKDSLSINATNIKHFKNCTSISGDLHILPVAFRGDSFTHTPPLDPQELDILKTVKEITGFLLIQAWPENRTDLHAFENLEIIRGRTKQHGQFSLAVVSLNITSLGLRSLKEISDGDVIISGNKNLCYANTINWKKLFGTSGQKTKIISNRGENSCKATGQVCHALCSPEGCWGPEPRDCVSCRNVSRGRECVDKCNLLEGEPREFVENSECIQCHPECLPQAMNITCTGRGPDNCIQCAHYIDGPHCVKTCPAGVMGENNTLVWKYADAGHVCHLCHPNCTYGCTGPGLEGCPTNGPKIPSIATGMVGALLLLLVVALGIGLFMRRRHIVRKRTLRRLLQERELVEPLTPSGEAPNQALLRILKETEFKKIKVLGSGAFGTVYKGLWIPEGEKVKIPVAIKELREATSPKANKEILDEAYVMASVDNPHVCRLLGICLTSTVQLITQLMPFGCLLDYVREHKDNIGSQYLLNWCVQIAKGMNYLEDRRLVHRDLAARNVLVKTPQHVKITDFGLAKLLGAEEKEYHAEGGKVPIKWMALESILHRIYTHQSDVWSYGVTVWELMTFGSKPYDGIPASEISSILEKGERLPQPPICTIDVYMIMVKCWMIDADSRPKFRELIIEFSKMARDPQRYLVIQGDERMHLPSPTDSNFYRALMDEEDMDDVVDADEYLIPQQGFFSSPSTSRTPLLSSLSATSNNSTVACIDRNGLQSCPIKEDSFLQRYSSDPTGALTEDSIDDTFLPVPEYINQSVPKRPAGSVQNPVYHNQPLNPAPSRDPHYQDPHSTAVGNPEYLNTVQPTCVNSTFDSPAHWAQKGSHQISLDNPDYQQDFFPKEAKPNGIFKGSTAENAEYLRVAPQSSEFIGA
IGF1R, sequence (P08069 31-1367): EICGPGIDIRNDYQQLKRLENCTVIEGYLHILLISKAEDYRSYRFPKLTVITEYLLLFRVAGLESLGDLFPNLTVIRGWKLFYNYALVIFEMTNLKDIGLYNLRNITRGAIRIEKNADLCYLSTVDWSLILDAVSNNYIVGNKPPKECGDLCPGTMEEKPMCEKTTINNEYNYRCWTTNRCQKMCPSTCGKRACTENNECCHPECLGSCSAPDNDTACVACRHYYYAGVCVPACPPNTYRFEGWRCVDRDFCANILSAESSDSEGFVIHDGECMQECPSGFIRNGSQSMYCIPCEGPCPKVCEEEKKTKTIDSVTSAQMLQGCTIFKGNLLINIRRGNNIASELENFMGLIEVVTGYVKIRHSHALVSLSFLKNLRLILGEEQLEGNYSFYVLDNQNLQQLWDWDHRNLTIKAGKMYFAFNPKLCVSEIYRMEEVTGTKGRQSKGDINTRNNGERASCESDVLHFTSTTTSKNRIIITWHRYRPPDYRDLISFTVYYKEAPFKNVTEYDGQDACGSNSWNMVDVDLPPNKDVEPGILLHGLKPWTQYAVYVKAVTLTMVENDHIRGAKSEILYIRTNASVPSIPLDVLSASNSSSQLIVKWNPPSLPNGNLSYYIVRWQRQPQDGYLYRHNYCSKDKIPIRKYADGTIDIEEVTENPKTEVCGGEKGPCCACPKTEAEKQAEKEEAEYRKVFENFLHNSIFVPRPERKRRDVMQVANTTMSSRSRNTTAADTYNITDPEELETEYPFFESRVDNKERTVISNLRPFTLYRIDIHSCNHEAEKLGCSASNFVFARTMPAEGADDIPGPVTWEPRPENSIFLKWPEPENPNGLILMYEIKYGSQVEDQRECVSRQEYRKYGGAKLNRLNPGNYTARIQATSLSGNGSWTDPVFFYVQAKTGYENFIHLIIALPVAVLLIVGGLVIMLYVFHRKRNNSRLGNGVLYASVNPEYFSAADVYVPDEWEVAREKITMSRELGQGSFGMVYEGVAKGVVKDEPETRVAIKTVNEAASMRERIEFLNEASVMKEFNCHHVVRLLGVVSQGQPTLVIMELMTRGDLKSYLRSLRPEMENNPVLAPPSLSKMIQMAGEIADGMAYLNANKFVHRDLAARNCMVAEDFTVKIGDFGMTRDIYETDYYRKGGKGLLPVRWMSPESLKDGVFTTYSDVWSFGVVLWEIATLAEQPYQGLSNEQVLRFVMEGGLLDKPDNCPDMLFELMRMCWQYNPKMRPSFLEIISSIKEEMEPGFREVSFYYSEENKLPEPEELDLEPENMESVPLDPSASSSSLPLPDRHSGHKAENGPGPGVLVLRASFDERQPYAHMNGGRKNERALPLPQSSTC
FGFR1, sequence (P11362 22-822, species assumed): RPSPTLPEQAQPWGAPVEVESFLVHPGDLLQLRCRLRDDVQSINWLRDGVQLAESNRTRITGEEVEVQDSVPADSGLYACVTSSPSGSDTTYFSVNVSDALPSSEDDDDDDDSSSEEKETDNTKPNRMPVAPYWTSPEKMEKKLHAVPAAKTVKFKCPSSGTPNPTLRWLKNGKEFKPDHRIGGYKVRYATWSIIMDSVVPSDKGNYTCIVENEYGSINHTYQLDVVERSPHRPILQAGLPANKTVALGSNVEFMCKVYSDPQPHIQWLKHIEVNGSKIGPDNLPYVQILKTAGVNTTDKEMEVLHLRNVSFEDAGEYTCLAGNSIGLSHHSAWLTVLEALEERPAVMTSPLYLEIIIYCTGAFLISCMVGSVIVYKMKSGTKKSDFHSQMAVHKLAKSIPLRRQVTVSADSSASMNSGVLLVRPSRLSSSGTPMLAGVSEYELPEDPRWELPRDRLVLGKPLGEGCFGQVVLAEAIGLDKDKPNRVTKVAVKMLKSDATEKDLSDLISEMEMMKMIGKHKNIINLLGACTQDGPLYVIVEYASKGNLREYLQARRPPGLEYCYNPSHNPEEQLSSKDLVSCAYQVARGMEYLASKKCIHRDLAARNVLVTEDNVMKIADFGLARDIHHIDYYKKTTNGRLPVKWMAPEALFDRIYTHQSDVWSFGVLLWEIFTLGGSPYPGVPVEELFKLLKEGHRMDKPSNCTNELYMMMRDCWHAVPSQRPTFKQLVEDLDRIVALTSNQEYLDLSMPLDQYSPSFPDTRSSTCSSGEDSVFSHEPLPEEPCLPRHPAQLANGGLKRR
ERK2, sequence (P28482 whole entry, species assumed): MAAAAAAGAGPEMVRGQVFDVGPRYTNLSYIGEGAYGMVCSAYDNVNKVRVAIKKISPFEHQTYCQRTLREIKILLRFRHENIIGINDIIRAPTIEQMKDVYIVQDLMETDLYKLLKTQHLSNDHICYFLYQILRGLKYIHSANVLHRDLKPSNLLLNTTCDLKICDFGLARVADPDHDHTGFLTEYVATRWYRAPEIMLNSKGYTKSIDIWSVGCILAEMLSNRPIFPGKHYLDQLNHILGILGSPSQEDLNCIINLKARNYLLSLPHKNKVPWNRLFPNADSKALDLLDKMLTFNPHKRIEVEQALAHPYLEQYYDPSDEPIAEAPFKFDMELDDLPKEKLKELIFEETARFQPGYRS
Lck, sequence (P06239 whole entry): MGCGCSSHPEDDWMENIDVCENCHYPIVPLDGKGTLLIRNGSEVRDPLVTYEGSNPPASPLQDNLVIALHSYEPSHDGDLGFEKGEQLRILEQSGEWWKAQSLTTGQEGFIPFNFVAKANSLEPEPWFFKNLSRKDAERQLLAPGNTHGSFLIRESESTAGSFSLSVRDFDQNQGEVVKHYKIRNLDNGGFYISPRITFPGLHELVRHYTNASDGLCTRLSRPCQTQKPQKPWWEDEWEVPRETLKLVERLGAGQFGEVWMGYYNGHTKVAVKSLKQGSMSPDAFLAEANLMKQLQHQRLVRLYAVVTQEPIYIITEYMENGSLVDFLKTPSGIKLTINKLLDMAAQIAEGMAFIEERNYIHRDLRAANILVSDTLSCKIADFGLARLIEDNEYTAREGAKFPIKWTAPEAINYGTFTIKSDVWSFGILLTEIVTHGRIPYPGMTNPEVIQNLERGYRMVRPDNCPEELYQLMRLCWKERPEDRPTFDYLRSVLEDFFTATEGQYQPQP
MAPKAP-K2, sequence (P49137 whole entry): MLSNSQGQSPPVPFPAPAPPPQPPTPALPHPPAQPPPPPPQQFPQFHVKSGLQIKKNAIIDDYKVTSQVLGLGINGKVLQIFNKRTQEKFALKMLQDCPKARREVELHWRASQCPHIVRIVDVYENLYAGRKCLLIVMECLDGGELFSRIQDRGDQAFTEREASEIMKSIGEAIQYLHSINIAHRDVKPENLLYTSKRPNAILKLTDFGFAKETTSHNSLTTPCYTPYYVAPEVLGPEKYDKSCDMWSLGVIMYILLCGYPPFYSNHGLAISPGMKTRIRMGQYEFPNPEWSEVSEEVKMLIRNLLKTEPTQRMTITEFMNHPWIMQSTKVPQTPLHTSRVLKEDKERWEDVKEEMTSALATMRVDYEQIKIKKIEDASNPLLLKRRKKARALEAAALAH
CK2-alpha 1, sequence (P68400 whole entry): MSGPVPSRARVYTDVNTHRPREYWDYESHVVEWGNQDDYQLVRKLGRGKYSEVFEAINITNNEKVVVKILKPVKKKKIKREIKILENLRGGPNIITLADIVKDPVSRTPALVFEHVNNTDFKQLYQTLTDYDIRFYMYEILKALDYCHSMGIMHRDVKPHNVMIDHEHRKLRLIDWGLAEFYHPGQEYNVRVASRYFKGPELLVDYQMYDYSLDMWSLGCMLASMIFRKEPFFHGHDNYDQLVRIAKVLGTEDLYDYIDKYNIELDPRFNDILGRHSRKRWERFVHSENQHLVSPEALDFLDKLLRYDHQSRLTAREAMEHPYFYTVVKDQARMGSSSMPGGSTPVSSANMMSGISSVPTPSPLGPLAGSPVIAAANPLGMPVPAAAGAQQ

The inhibition is how much of the control response was suppressed. Higher therefore signals strong suppression. For `CC(C)(C)c1cc(C(=O)N2CCNS(=O)(=O)CC2)c(NC(=O)Nc2ccc(Oc3ccncc3)cc2)s1` [Example 1, 1-(5-tert-Butyl-3-(1,1-dioxo-1λ^6-[1,2,5]thiadiazepane-5-carbonyl)thiophen-2-yl)-3-(4-(pyridin-4-yloxy)phenyl)urea], the inhibition at 2 µM on IGF1R was in the range of 0 to 25%; against LynA, 26 to 50%; against MAPKAP-K2, 0 to 25%; on FGFR1, 0 to 25%; on CK2-alpha 1, 0 to 25%; against Lck it was 0 to 25%. Also, the inhibition at 2 µM at ERK2, at PKA and against Src was 0 to 25% throughout. For the same compound, the “% Inhibition at ATP Km,app” value at EGFR and at IRAK4 was 0-25% each time.

In the case of `CC(C)(C)c1cc(C(=O)N2CCNC(=O)C2)c(NC(=O)Nc2ccc(Oc3ccncc3)cc2)s1` [Example 2, 1-(5-tert-Butyl-3-(3-oxo-piperazine-1-carbonyl)thiophen-2-yl)-3-(4-(pyridin-4-yloxy)phenyl)urea], the inhibition at 2 µM lay in the range of 0 to 25% on IGF1R; 26 to 50% against LynA; 0 to 25% at MAPKAP-K2; 0 to 25% at FGFR1; 0 to 25% at CK2-alpha 1; 0 to 25% against Lck. Besides, the inhibition at 2 µM against ERK2, at PKA and on Src was 0 to 25% in each case. For the same compound, the “% Inhibition at ATP Km,app” value on EGFR and at IRAK4 was 0-25% throughout.

`CC(C)(C)c1cc(C(=O)N2CCNC(=O)CC2)c(NC(=O)Nc2ccc(Oc3ccncc3)cc2)s1` [Example 4, 1-(5-tert-Butyl-3-(5-oxo-[1,4]diazepane-1-carbonyl)thiophen-2-yl)-3-(4-(pyridin-4-yloxy)phenyl)urea]: the inhibition at 2 µM on IGF1R was in the range of 0 to 25%; against LynA it was 51 to 76%; at MAPKAP-K2 it was 0 to 25%; on FGFR1, 26 to 50%; against CK2-alpha 1, 0 to 25%; on Lck it was 0 to 25%. Besides, the inhibition at 2 µM against ERK2, at PKA and at Src was 0 to 25% throughout. The “% Inhibition at ATP Km,app” value on EGFR and on IRAK4 was 0-25% throughout.
